Reference: the NIST ThermoML archive (doi:10.1021/acs.jced.8b01237)
± gives the expanded uncertainty stated by the source.

Conditions: 100 kPa, Liquid, Concentric cylinders viscometry

| Compound | viscosity (298.15 K) [mPa·s] | viscosity (318.15 K) [mPa·s] | viscosity (338.15 K) [mPa·s] |
| --- | --- | --- | --- |
| CCC[N+]1(C)CCCC1.O=S(=O)([N-]S(=O)(=O)C(F)(F)F)C(F)(F)F | 56.6 ± 9.1 | 26.48 ± 4.2 | 15.55 ± 2.5 |
| CCCCCC[N+]1(C)CCCC1.O=S(=O)([N-]S(=O)(=O)C(F)(F)F)C(F)(F)F | 98.3 ± 16 | 41.38 ± 6.6 | 21.88 ± 3.5 |
| CCCC[N+]1(C)CCCC1.O=S(=O)([N-]S(=O)(=O)C(F)(F)F)C(F)(F)F | 75.6 ± 12 | 34.3 ± 5.5 | 18.62 ± 3 |
